Patent publication US20040082635A1, “Fused cyclic compounds and medicinal use thereof” (priority 2001, published 2004)
Where a name gives a salt, the structure may show the parent alone.

Target: T1, HCV polymerase (Hepatitis C virus genotype 1b, UniProt P26663)
T1 construct: a region encoding NS5B (591 amino acids; J Virol 1991 Mar, 65(3), 1105-13) was amplified by PCR; 6 His (N); made in house; host or cells: Escherichia coli
Test: biochemical
Settings: read-out: HCV polymerase inhibitory activity IC50

T1 sequence (P26663 2420-3010): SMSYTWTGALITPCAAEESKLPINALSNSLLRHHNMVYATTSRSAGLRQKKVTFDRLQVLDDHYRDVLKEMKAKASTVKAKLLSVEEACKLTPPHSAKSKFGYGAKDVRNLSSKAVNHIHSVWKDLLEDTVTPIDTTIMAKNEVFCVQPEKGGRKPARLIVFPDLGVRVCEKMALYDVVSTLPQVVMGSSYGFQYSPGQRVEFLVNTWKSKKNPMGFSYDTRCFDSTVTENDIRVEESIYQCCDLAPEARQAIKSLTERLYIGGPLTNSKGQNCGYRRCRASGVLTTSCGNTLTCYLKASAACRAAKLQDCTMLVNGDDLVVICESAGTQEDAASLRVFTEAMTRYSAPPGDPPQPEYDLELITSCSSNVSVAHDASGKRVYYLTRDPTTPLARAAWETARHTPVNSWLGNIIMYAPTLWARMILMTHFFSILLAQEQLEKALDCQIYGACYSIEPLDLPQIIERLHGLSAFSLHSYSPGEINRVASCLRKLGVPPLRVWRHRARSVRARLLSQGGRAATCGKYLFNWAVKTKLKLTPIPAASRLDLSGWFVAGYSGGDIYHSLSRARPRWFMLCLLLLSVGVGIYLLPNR

Q: How did the IC50 turn out when `CN(C)C(=O)c1ccc(-c2cccc(F)c2)c(COc2ccc(-c3nc4cc(C(=O)O)ccc4n3C3CCCCC3)cc2)c1` [Example 361, 2-{4-[5-(dimethylcarbamoyl)-2-(3-fluorophenyl)benzyloxy]phenyl}-1-cyclohexylbenzimidazole-5-carboxylic acid hydrochloride] was run?
A: 28 nM

Q: Which IC50 does the source give for `CN(C)C(=O)c1ccc(-c2ccc(Cl)s2)c(COc2ccc(-c3nc4cc(C(=O)O)ccc4n3C3CCCCC3)cc2)c1` [Example 362, 2-{4-[2-(5-chlorothiophen-2-yl)-5-(dimethylcarbamoyl)benzyloxy]-phenyl}-1-cyclohexylbenzimidazole-5-carboxylic acid hydrochloride] here?
A: 20 nM

Q: For `Cc1cnc(-c2ccc(Br)c(COc3ccc(-c4nc5cc(C(=O)O)ccc5n4C4CCCCC4)cc3)c2)o1` [Example 363, 2-{4-[2-bromo-5-(5-methyloxazol-2-yl)benzyloxy]phenyl}-1-cyclohexylbenzimidazole-5-carboxylic acid hydrochloride], which IC50 is on record?
A: 110 nM

Q: With `Cc1cnc(-c2ccc(Br)c(COc3ccc(-c4nc5cc(C(=O)O)ccc5n4C4CCCCC4)cc3)c2)s1` [Example 364, 2-{4-[2-bromo-5-(5-methylthiazol-2-yl)benzyloxy]phenyl}-1-cyclohexylbenzimidazole-5-carboxylic acid hydrochloride] as the compound, how does the IC50 read?
A: 120 nM

Q: For `Cc1cnc(-c2ccc(-c3ccc(Cl)cc3)c(COc3ccc(-c4nc5cc(C(=O)O)ccc5n4C4CCCCC4)cc3)c2)o1` [Example 365, 2-{4-[2-(4-chlorophenyl)-5-(5-methyloxazol-2-yl)benzyloxy]-phenyl}-1-cyclohexylbenzimidazole-5-carboxylic acid hydrochloride], which IC50 is on record?
A: 20 nM

Q: `Cc1cnc(-c2ccc(-c3ccc(Cl)cc3)c(COc3ccc(-c4nc5cc(C(=O)O)ccc5n4C4CCCCC4)cc3)c2)s1` [Example 366, 2-{4-[2-(4-chlorophenyl)-5-(5-methylthiazol-2-yl)benzyloxy]-phenyl}-1-cyclohexylbenzimidazole-5-carboxylic acid hydrochloride] was tested. Which IC50 did it give?
A: 24 nM

Q: With `O=C(O)c1ccc2c(c1)nc(-c1ccc(OCc3cc(-c4nnn[nH]4)ccc3-c3ccc(Cl)cc3)cc1)n2C1CCCCC1` [Example 367, 2-{4-[2-(4-chlorophenyl)-5-tetrazol-5-ylbenzyloxy]phenyl}-1-cyclohexylbenzimidazole-5-carboxylic acid hydrochloride] as the compound, how does the IC50 read?
A: 11 nM

Q: Which IC50 does the source give for `O=C(O)c1ccc2c(c1)nc(-c1ccc(OCc3cc(Cl)ccc3-c3ccc(-c4nnn[nH]4)cc3)cc1)n2C1CCCCC1` [Example 369, 2-{4-[5-chloro-2-(4-tetrazol-5-ylphenyl)benzyloxy]phenyl}-1-cyclohexylbenzimidazole-5-carboxylic acid hydrochloride] here?
A: 22 nM

Q: For `O=C(O)c1ccc2c(c1)nc(-c1ccc(OCc3cc(OCCN4CCC(O)CC4)ccc3-c3ccc(Cl)cc3)cc1)n2C1CCCCC1` [Example 370, 2-{4-[2-(4-chlorophenyl)-5-{2-(4-hydroxypiperidin-1-yl)ethoxy}benzyloxy]phenyl}-1-cyclohexylbenzimidazole-5-carboxylic acid hydrochloride], which IC50 is on record?
A: 17 nM

Q: For `O=C(O)c1ccc2c(c1)nc(-c1ccc(OCc3cc(N4CCCCC4=O)ccc3-c3ccc(Cl)cc3)cc1F)n2C1CCCCC1` [Example 371, 2-{4-[2-(4-chlorophenyl)-5-(2-oxopiperidin-1-yl)benzyloxy]-2-fluorophenyl}-1-cyclohexylbenzimidazole-5-carboxylic acid hydrochloride], which IC50 is on record?
A: 15 nM

Q: For `CN(C)C(=O)c1cc(COc2ccc(-c3nc4cc(C(=O)O)ccc4n3C3CCCCC3)c(F)c2)cc(-c2ccc(Cl)cc2)c1` [Example 372, 2-{4-[3-(4-chlorophenyl)-5-(dimethylcarbamoyl)benzyloxy]-2-fluorophenyl}-1-cyclohexylbenzimidazole-5-carboxylic acid hydrochloride], which IC50 is on record?
A: 33 nM

Q: How did the IC50 turn out when `N/C(=N\O)c1ccc(-c2ccc(Cl)cc2)c(COc2ccc(-c3nc4cc(C(=O)O)ccc4n3C3CCCCC3)c(F)c2)c1` [Example 373, 2-{4-[2-(4-chlorophenyl)-5-(N-hydroxyamidino)benzyloxy]-2-fluorophenyl}-1-cyclohexylbenzimidazole-5-carboxylic acid dihydrochloride] was run?
A: 13 nM

Q: How did the IC50 turn out when `O=C(O)c1ccc2c(c1)nc(-c1ccc(OCc3cc(-c4noc(=O)[nH]4)ccc3-c3ccc(Cl)cc3)cc1F)n2C1CCCCC1` [Example 374, 2-{4-[2-(4-chlorophenyl)-5-(2,5-dihydro-5-oxo-4H-1,2,4-oxadiazol-3-yl)benzyloxy]-2-fluorophenyl}-1-cyclohexylbenzimidazole-5-carboxylic acid hydrochloride] was run?
A: 13 nM

Q: With `O=C(O)c1ccc2c(c1)nc(-c1ccc(OCc3cc(C4=NOS(=O)N4)ccc3-c3ccc(Cl)cc3)cc1F)n2C1CCCCC1` (stereo not drawn) [Example 375, 2-{4-[2-(4-chlorophenyl)-5-(2-oxo-3H-1,2,3,5-oxathiadiazol-4-yl)benzyloxy]-2-fluorophenyl}-1-cyclohexylbenzimidazole-5carboxylic acid hydrochloride] as the compound, how does the IC50 read?
A: 12 nM

Q: How did the IC50 turn out when `O=C(O)c1ccc2c(c1)nc(-c1ccc(OCc3cc(-c4nsc(=O)[nH]4)ccc3-c3ccc(Cl)cc3)cc1F)n2C1CCCCC1` [Example 376, 2-{4-[2-(4-chlorophenyl)-5-(2,5-dihydro-5-oxo-4H-1,2,4-thiadiazol-3-yl)benzyloxy]-2-fluorophenyl}-1-cyclohexylbenzimidazole-5-carboxylic acid hydrochloride] was run?
A: 14 nM

Q: How did the IC50 turn out when `O=C(O)c1ccc2c(c1)nc(-c1ccc(OCc3cc(C(=O)NC4CC4)ccc3-c3ccc(Cl)cc3)cc1F)n2C1CCCCC1` [Example 377, 2-{4-[2-(4-chlorophenyl)-5-(cyclopropylcarbamoyl)benzyloxy]-2-fluorophenyl}-1-cyclohexylbenzimidazole-5-carboxylic acid hydrochloride] was run?
A: 12 nM

Q: How did the IC50 turn out when `O=C(O)c1ccc2c(c1)nc(-c1ccc(OCc3cc(C(=O)NC4CCC4)ccc3-c3ccc(Cl)cc3)cc1F)n2C1CCCCC1` [Example 378, 2-{4-[2-(4-chlorophenyl)-5-(cyclobutylcarbamoyl)benzyloxy]-2-fluorophenyl}-1-cyclohexylbenzimidazole-5-carboxylic acid hydrochloride] was run?
A: 18 nM

Q: Which IC50 does the source give for `CC(C)(C)NC(=O)c1ccc(-c2ccc(Cl)cc2)c(COc2ccc(-c3nc4cc(C(=O)O)ccc4n3C3CCCCC3)c(F)c2)c1` [Example 379, 2-{4-[2-(4-chlorophenyl)-5-(tert-butylcarbamoyl)benzyloxy]-2-fluorophenyl}-1-cyclohexylbenzimidazole-5-carboxylic acid hydrochloride] here?
A: 21 nM

Q: `CC(C)CNC(=O)c1ccc(-c2ccc(Cl)cc2)c(COc2ccc(-c3nc4cc(C(=O)O)ccc4n3C3CCCCC3)c(F)c2)c1` [Example 380, 2-{4-[2-(4-chlorophenyl)-5-(isobutylcarbamoyl)benzyloxy]-2-fluorophenyl}-1-cyclohexylbenzimidazole-5-carboxylic acid hydrochloride] was tested. Which IC50 did it give?
A: 23 nM

Q: `CC(CO)NC(=O)c1ccc(-c2ccc(Cl)cc2)c(COc2ccc(-c3nc4cc(C(=O)O)ccc4n3C3CCCCC3)c(F)c2)c1` (stereo not drawn) [Example 381, 2-{4-[2-(4-chlorophenyl)-5-{(1-hydroxypropan-2-yl)carbamoyl}-benzyloxy]-2-fluorophenyl}-1-cyclohexylbenzimidazole-5-carboxylic acid hydrochloride] was tested. Which IC50 did it give?
A: 11 nM

Q: Which IC50 does the source give for `CONC(=O)c1ccc(-c2ccc(Cl)cc2)c(COc2ccc(-c3nc4cc(C(=O)O)ccc4n3C3CCCCC3)c(F)c2)c1` [Example 382, 2-{4-[2-(4-chlorophenyl)-5-(methoxycarbamoyl)benzyloxy]-2-fluorophenyl}-1-cyclohexylbenzimidazole-5-carboxylic acid hydrochloride] here?
A: 15 nM

Q: With `O=C(O)c1ccc2c(c1)nc(-c1ccc(OCc3cc(C(=O)NCC(O)CO)ccc3-c3ccc(Cl)cc3)cc1F)n2C1CCCCC1` (stereo not drawn) [Example 383, 2-{4-[2-(4-chlorophenyl)-5-{(2,3-dihydroxypropyl)carbamoyl}-benzyloxy]-2-fluorophenyl}-1-cyclohexylbenzimidazole-5-carboxylic acid hydrochloride] as the compound, how does the IC50 read?
A: 13 nM

Q: Which IC50 does the source give for `CCN(C)C(=O)c1ccc(-c2ccc(Cl)cc2)c(COc2ccc(-c3nc4cc(C(=O)O)ccc4n3C3CCCCC3)c(F)c2)c1` [Example 384, 2-{4-[2-(4-chlorophenyl)-5-(N-ethyl-N-methylcarbamoyl)benzyloxy]-2-fluorophenyl}-1-cyclohexylbenzimidazole-5-carboxylic acid hydrochloride] here?
A: 16 nM

Q: `CCCN(C)C(=O)c1ccc(-c2ccc(Cl)cc2)c(COc2ccc(-c3nc4cc(C(=O)O)ccc4n3C3CCCCC3)c(F)c2)c1` [Example 385, 2-{4-[2-(4-chlorophenyl)-5-(N-methyl-N-propylcarbamoyl)-benzyloxy]-2-fluorophenyl}-1-cyclohexylbenzimidazole-5-carboxylic acid hydrochloride] was tested. Which IC50 did it give?
A: 19 nM

Q: How did the IC50 turn out when `CC(C)N(C)C(=O)c1ccc(-c2ccc(Cl)cc2)c(COc2ccc(-c3nc4cc(C(=O)O)ccc4n3C3CCCCC3)c(F)c2)c1` [Example 386, 2-{4-[2-(4-chlorophenyl)-5-(N-isopropyl-N-methylcarbamoyl)-benzyloxy]-2-fluorophenyl}-1-cyclohexylbenzimidazole-5-carboxylic acid hydrochloride] was run?
A: 18 nM

Q: How did the IC50 turn out when `C[C@@H]1CCC[C@H](C)N1C(=O)c1ccc(-c2ccc(Cl)cc2)c(COc2ccc(-c3nc4cc(C(=O)O)ccc4n3C3CCCCC3)c(F)c2)c1` [Example 387, 2-{4-[2-(4-chlorophenyl)-5-(2,6-dimethylpiperidin-1-ylcarbonyl)-benzyloxy]-2-fluorophenyl}-1-cyclohexylbenzimidazole-5-carboxylic acid hydrochloride] was run?
A: 25 nM

Q: Which IC50 does the source give for `CCCCNC(=O)c1ccc(-c2ccc(Cl)cc2)c(COc2ccc(-c3nc4cc(C(=O)O)ccc4n3C3CCCCC3)c(F)c2)c1` [Example 388, 2-{4-[5-(butylcarbamoyl)-2-(4-chlorophenyl)benzyloxy]-2-fluorophenyl}-1-cyclohexylbenzimidazole-5-carboxylic acid hydrochloride] here?
A: 20 nM
